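Test compounds were applied to cells in 96-well plates for 48 hours at 5 doses. GI50 is the concentration that inhibits growth by half. TGI: total growth inhibition.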
How the values were obtained:
Assay in all cases: NCI-60 cell line screen, 48 h
COLO 205 colon = test system: COLO 205 colon
ACHN renal = test system: ACHN renal
PC-3 prostate = test system: PC-3 prostate
UACC-257 melanoma = test system: UACC-257 melanoma
HS 578T breast = test system: HS 578T breast
MDA-MB-231 breast = test system: MDA-MB-231 breast
SN12C renal = test system: SN12C renal
OVCAR-3 ovarian = test system: OVCAR-3 ovarian
HOP-62 NSCLC = test system: HOP-62 NSCLC
SR leukemia = test system: SR leukemia

Row | SMILES | GI50 (COLO 205 colon) [µM] | TGI (COLO 205 colon) [µM] | GI50 (ACHN renal) [µM] | TGI (ACHN renal) [µM] | GI50 (PC-3 prostate) [µM] | TGI (PC-3 prostate) [µM] | GI50 (UACC-257 melanoma) [µM] | TGI (UACC-257 melanoma) [µM] | GI50 (HS 578T breast) [µM] | TGI (HS 578T breast) [µM] | GI50 (MDA-MB-231 breast) [µM] | TGI (MDA-MB-231 breast) [µM] | GI50 (SN12C renal) [µM] | TGI (SN12C renal) [µM] | GI50 (OVCAR-3 ovarian) [µM] | TGI (OVCAR-3 ovarian) [µM] | GI50 (HOP-62 NSCLC) [µM] | TGI (HOP-62 NSCLC) [µM] | TGI (SR leukemia) [µM] | GI50 (SR leukemia) [µM]
1 | CC(=O)N1CCN(CCOc2ccc(C3CCN(C4=Nn5c(nnc5C(F)(F)F)CC4)CC3)cc2)CC1 | 11.5 | > 70.6 | 10.6 | > 100 | 7.87 | > 100 | 26 | > 100 | 5.43 | > 100 | 7.83 | > 100 | 14.5 | > 100 | 20.8 | > 100 | 11.5 | > 100 |  | 
2 | O=C(/C(=C/c1ccccc1)c1ccccc1)N1c2ccccc2CC1c1c[nH]c2ccccc12 (stereo unspecified) |  | 24.7 |  | > 100 |  |  |  | > 100 |  |  |  |  |  | > 100 |  | 89.6 |  | > 100 | > 100 | 
3 | c1ccc(C2[C@@H]3CCCc4ccccc4C3=NN2c2ccccc2)cc1 (stereo partly specified) |  | > 100 |  | > 100 |  |  |  | > 100 |  |  |  |  |  | > 100 |  | > 100 |  | > 100 | > 100 | 
4 | COc1cc2c(cc1OC)-c1ncc3cc4c(cc3c1C2)OCO4 | 61.1 | > 100 | > 100 | > 100 | > 100 | > 100 | 48.4 | > 100 |  |  | > 100 | > 100 | > 100 | > 100 | 61.2 | > 100 |  |  | 15.3 | 2.7
5 | CCOC(=O)/N=c1/nc(N(C)C)ss1 |  |  |  | > 100 |  |  |  | > 100 |  |  |  |  |  | > 100 |  |  |  | > 100 | > 100 | 
6 | COC(=O)C1CC(C(=O)OC)c2nc3cc(C)c(C)cc3nc21 (stereo unspecified) |  | > 100 |  | > 100 |  |  |  | > 100 |  |  |  |  |  | > 100 |  | > 100 |  | > 100 |  | 
7 | CN1CCN(CCOc2ccc(-c3cnc4c(-c5ccc(F)cc5)cnn4c3)cc2)CC1 |  |  | 1.42 | 2.73 | 1.7 | 3.82 | 2.11 | 4.42 | 1.49 | 4.53 | 1.57 | 3.07 | 1.69 | 3.23 | 1.68 | 3.35 | 1.85 | 3.81 | 10.9 | 2.07
8 | Cc1ccc(S(=O)OC23CC4CC(CC(C4)C2)C3)cc1 (stereo unspecified) |  | > 100 |  | > 100 |  |  |  | > 100 |  |  |  |  |  | > 100 |  | > 100 |  | > 100 | > 100 | 
9 | CN(C)CCNc1nc(-c2cccs2)cc(-c2cccs2)n1 |  | 27.9 |  |  |  |  |  | 24.2 |  |  |  |  |  | 27.4 |  | 48.7 |  | 40.7 | 15.4 | 
10 | COc1ccc(C(=O)O/N=C2/CCC/C2=C\c2ccccc2)cc1 |  | > 100 |  | > 100 |  |  |  | > 100 |  |  |  |  |  | > 100 |  | > 100 |  | > 100 | > 100 | 
11 | CCOC(=S)SCN1C(=O)c2ccccc2S1(=O)=O | 2.94 | 11.2 | 16.8 | 30.5 | 33 | > 100 | 18.5 | 55.2 | 29.4 | 82.5 | 19.3 | 40.9 | 21 | 46.6 | 0.0358 | 17.3 | 24.6 | 65.8 |  | 
12 | O=C(NCCCCOCC#Cc1ccccc1C#CCS(=O)(=O)c1ccccc1)c1cc2ccccc2[nH]1 | 10.9 | 28.1 | 9.64 | 22.9 | 7.1 | 36.5 | 22.4 | > 50 | 21.9 | > 50 | 9.59 | 27.4 | 10 | 24.9 | 14 | > 35 | 21.5 | > 50 |  | 
13 | CC(=O)CC(=O)/C=C/c1cccs1 |  | > 100 |  | > 100 |  |  |  | > 100 |  |  |  |  |  | > 100 |  | > 100 |  | > 100 | > 100 | 
14 | COc1cc(/C=N\O)nc(-c2ccccn2)c1 |  | > 100 |  | > 100 |  | > 100 |  | > 100 |  | > 100 |  | > 100 |  |  |  | > 100 |  |  | 0.453 | 
15 | Nc1ccc(C(=O)N/C(=C\c2cccc([N+](=O)[O-])c2)c2nc3c4c(ccc3[nH]2)C(=O)c2ccccc2C4=O)cc1 |  | > 100 |  |  |  |  |  | > 100 |  |  |  |  |  | > 100 |  | > 100 |  | > 100 |  | 
16 | Cc1cc(O)cc2c1c(=O)c1ccccc1n2C |  | > 100 |  | > 100 |  | > 100 |  | > 100 |  | > 100 |  | > 100 |  | > 100 |  | > 100 |  |  | > 100 | 
17 | COc1cc([C@@H]2c3cc4c(cc3C[C@H]3COC(=O)[C@@H]32)OCO4)cc2c1OCO2 |  | 0.0149 |  | > 100 |  |  |  |  |  |  |  | < 0.0224 |  | > 100 |  | < 0.01 |  | > 82 | < 0.01 | 
18 | COc1ccc2nc3cccc(C(=O)NCCN(C)C)c3nc2c1 |  | > 24.3 |  | 6.78 |  |  |  | 7.74 |  |  |  |  |  | 4.93 |  | 5.89 |  | 3.76 | > 100 | 
19 | C#CCN(Cc1nc2cc(C(F)(F)F)ccc2nc1-c1ccccc1)c1ccc(F)c(F)c1 | 29.4 | > 100 | 78.3 | > 100 | 37.6 | > 100 | 40.5 | 64.9 | 45.5 | > 100 | 21.9 | > 100 | 46.2 | > 100 | 13.9 | 61.8 | > 100 | > 100 |  | 
20 | C[N+](C)(C)CC1CCCC/C1=N\O (stereo unspecified) |  | > 100 |  | > 100 |  |  |  | > 100 |  |  |  |  |  | > 100 |  | > 100 |  | > 100 |  | 
21 | OCC(O)C(OC1OC(CO)C(O)C(O)C1O)c1nn(-c2ccccc2)c2nc3cc(Cl)ccc3nc12 (stereo unspecified) |  |  |  | > 100 |  |  |  | > 100 |  |  |  |  |  | > 100 |  | > 100 |  | > 100 | > 100 | 

From PubChem BioAssay (NCI)
